Experimental data: patent US8795977B2, “Method for screening a potential modulator compound of a taste receptor” (Conopco, Inc., priority 2009, dated 2014)

Molecular target: T1, T1R1/T1R3 umami receptor (Homo sapiens, UniProt Q7RTX0+Q7RTX1, C757R)
T1 construct: expressed in transfected cells; host or cells: HEK293 cells, transiently transfected (Lipofectamine 2000)
T1 sequence (Q7RTX1 21-841): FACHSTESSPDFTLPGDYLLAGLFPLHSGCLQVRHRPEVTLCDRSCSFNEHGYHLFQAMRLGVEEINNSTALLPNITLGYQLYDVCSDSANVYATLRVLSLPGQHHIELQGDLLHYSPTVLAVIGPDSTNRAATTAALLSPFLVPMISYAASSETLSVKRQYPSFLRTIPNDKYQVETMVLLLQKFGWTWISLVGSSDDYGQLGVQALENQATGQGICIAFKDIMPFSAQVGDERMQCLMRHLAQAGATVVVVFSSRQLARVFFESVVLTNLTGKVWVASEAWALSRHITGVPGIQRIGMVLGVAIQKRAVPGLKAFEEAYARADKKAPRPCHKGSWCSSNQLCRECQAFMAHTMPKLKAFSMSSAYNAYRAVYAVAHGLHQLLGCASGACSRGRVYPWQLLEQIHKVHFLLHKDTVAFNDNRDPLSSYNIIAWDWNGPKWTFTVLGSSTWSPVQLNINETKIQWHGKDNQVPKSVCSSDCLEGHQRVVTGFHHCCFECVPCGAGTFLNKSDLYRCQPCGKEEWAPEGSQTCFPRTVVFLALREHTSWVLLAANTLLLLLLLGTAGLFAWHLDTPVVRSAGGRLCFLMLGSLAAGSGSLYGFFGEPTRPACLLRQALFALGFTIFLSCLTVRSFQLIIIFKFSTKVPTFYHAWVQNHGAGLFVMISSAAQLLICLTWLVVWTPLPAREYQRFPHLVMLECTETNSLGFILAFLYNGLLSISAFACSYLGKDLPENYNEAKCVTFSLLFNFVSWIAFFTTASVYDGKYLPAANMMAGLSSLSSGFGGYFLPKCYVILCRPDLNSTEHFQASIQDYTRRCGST
T1 sequence (Q7RTX0 with tags, fused parts or gaps C757R): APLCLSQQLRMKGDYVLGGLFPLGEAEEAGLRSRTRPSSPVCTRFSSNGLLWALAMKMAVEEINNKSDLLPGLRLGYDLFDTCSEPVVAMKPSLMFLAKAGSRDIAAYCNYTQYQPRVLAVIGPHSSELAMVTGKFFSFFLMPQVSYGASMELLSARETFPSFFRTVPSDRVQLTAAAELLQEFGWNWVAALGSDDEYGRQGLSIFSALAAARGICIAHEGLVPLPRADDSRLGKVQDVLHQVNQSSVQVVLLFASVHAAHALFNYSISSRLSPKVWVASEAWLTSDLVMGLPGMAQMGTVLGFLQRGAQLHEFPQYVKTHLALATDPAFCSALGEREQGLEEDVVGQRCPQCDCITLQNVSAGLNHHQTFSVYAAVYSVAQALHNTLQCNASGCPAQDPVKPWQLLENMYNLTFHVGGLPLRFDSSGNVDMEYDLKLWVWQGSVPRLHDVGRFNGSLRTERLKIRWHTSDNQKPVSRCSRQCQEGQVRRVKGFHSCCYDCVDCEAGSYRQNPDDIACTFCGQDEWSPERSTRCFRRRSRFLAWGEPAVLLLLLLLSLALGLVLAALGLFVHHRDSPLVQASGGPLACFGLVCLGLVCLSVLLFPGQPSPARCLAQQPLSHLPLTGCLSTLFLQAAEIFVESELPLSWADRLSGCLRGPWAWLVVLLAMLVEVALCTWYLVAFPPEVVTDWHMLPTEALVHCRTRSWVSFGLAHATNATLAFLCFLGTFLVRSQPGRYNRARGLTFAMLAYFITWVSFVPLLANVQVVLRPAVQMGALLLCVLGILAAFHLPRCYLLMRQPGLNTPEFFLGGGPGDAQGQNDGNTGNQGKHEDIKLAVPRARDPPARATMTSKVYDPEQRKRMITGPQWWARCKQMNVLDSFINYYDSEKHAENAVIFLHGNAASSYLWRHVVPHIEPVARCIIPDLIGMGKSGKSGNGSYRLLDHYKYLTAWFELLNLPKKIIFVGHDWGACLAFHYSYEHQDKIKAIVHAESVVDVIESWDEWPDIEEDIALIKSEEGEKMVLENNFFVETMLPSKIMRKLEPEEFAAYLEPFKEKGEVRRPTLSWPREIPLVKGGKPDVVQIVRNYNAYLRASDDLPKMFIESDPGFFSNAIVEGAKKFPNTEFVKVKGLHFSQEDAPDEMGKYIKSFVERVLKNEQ
Test: BRET assay (T1R1/T1R3-Rluc and GFP-2-β-arrestin-2 in HEK293 cells)
Type: cell-based
Set-up: key: +: A BRET signal above the values achieved for buffer alone was defined as umami receptor-specific
Conditions: MSG 10 mM
Protocol: FIG. 2 Activation of the T1R1/T1R3 umami receptor expressed in HEK293-Gα15 cells as measured by BRET assays as described in Example 2. Test solutions (or buffer) as indicated and substrate were added to the cells. The BRET signals were determined as the ratio between readings taken at the acceptor wavelength (515 nm) divided by the signals determined for the donor (400 nm). To correct for background signal due to overlap of donor emission at the acceptor wavelength, the BRET ratio was determined in parallel for cells expressing the donor alone (T1R1/T1R3-Rluc). This BRET background value was subtracted from the BRET value obtained for the cells expressing both BRET partners (BRET=BRET ratio−background ratio). A BRET signal above the values achieved for buffer alone was defined as umami receptor-specific (see also table 2B).
The extracts or crude mixtures described below are examples for natural samples unsuitable for testing with a calcium-based receptor assay due to their high non-specific background signal. They are from different origin and are selected to illustrate a wide range of potential test samples. […] Calcium-Based Receptor Assay: Activation of the T1R1/T1R3 umami receptor expressed in HEK293-Gα15 cells has been measured by monitoring the release of intracellular calcium. […]

## N[C@@H](CCC(=O)O)C(=O)[O-].[Na+] [MSG, Monosodium glutamate]
  T1R1/T1R3 receptor-specific signal, BRET assay: +
